Assay [1] deals with C. auris CBS12373. Kind of assay: Broth microdilution MIC. In kind it is cell-based, Candida auris.
Assay [2] has as its system P. aeruginosa AR-1270. The gist of the method: (§1)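 Broth microdilution with 5 × 10^5 CFU/ml inoculum in cation-adjusted Mueller–Hinton broth for antibiotics or MHB for peptidomimetics; 16–20 h at 37°C, 120 rpm. MBC/MFC by plating on Trypticase Soya Agar with phosphatidylcholine and Tween 80; geometric mean MIC calculated across pathogens.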
Assay [3] concerns K. pneumoniae JIE2709. An outline of the steps: as §1
In assay [4] the test system is K. pneumoniae JIE2713. The gist of the method:
as §1

For assay [5], the system named is S. aureus 117. The gist of the method:
as §1

Assay [6] has as its system A. baumannii ATCC 19 606. The gist of the method: as §1
The subject of assay [7] is S. aureus 38. The gist of the method:
as §1

Assay [8] has as its system Enterobacteriaceae. Kind of assay: Geometric mean MIC, therapeutic index and selectivity ratio, Enterobacteriaceae. To be noted: Enterobacteriaceae (E. coli, K. pneumoniae, and E. aerogenes). It is filed as cell-based. The method, then: (§2) Briefly, bacteria were suspended in cation-adjusted Mueller–Hinton broth (CAMHB; Oxoid, UK) for antibiotics, or MHB (Oxoid, UK) for peptidomimetics to obtain 5 × 10^5 colony forming unit (CFU) ml^−1. […] Positive controls contained only microbes, and blanks contained only media. Microbial suspensions (100 µl) were added to wells, plates wrapped, and incubated at 37°C, 120 rpm for 16–20 h. After incubation, suspensions were removed, log10 diluted, and plated on Trypticase Soya Agar with phosphatidylcholine and Tween 80 to determine minimum bactericidal or fungicidal concentration (MBC or MFC). […] Geometric mean MIC of the peptoids were calculated to evaluate the broad overview of antimicrobial activity across the pathogens.
(§3) The therapeutic indices (TIs) of the compounds were calculated with the use of following formula: […]

The test system of assay [9] is ESKAPEE pathogens (all bacteria). As to the kind of experiment: Geometric mean MIC, therapeutic index and selectivity ratio, all bacteria. In kind it is cell-based. To be noted: across the 23 ESKAPEE strains. The method, then: as §2, §3
Assay [10] concerns C. auris CBS10913.
Setting [11] is: CBS 12 373, RPMI 1640 with MOPS, 5 × 10^3 CFU ml^−1, ≥90% reduction (≥50% for fluconazole).
Where [12] appears, read: P. aeruginosa AR-1270, MHB (melimine/Mel4 with 0.2% BSA, 0.01% acetic acid), mean MIC.
The mark [13] stands for this setting: K. pneumoniae JIE2709, MHB (melimine/Mel4 with 0.2% BSA, 0.01% acetic acid), mean MIC.
[14] abbreviates: K. pneumoniae JIE2713, MHB (melimine/Mel4 with 0.2% BSA, 0.01% acetic acid), mean MIC.
Where [15] appears, read: S. aureus 117, MHB (melimine/Mel4 with 0.2% BSA, 0.01% acetic acid), mean MIC.
The mark [16] stands for this setting: A. baumannii ATCC 19 606, MHB (melimine/Mel4 with 0.2% BSA, 0.01% acetic acid), mean MIC.
[17] abbreviates: S. aureus 38, MHB (melimine/Mel4 with 0.2% BSA, 0.01% acetic acid), mean MIC.
[18] abbreviates: CBS 10 913, RPMI 1640 with MOPS, 5 × 10^3 CFU ml^−1, ≥90% reduction (≥50% for fluconazole).

Like-named read-outs stand apart in the source and are kept apart here. Square brackets hold non-standard residues; d marks the D form. Peptide text beside a SMILES is read from it. Nspe(4-Br) = C[C@H](NCC(=O)O)c1ccc(Br)cc1; Nspe = C[C@H](NCC(=O)O)c1ccccc1; Nlys = NCCCCNCC(=O)O

Consider `C[C@@H](c1ccc(Br)cc1)N(CC(N)=O)C(=O)CN(C(=O)CN(CCCCN)C(=O)CN(C(=O)CN(C(=O)CNCCCCN)[C@@H](C)c1ccccc1)[C@@H](C)c1ccc(Br)cc1)[C@@H](C)c1ccccc1` [TM2] (H-[Nlys][Nspe][Nspe(4-Br)][Nlys][Nspe][Nspe(4-Br)]-NH2), for which the “MIC against C. auris” value came out at 3.9 µg/mL in [1] (setting [11]), 3.6 µM in assay [1] (CBS12373), 31.25 µg/mL in [10] (setting [18]) and 29 µM in assay [10] (CBS10913). Besides, the MIC of peptidomimetics was 29.0 µM in assay [2] (AR-1270); 31.3 µg/mL in assay [2] (setting [12]); 116.2 µM in assay [3] (JIE2709); 125 µg/mL in [3] (setting [13]); 116.2 µM in [4] (JIE2713); 125 µg/mL in assay [4] (setting [14]). Further, the MIC of peptidomimetics in assay [5] (117) came to 7.2 µM; in assay [5] (setting [15]), 7.8 µg/mL; in [6] (setting [16]) it was 31.3 µg/mL; in [6] (ATCC 19) it was 29.0 µM; in assay [7] (38), 7.2 µM; in assay [7] (setting [17]) it was 7.8 µg/mL. In [8], the “Geometric mean MICE” value came out at 58.3 µg/mL. Moreover, the entries for the “Geometric mean MIC, all bacteria” value in [9] and in [9] (value in brackets) were 26.1 µg/mL and 24.2 µM, respectively.

As for `C[C@@H](c1ccccc1)N(CC(N)=O)C(=O)CN(CCCCN)C(=O)CN(C(=O)CN(C(=O)CN(CCCCN)C(=O)CN(C(=O)CN(C(=O)CN(CCCCN)C(=O)CN(C(=O)CN(C(=O)CNCCCCN)[C@@H](C)c1ccccc1)[C@@H](C)c1ccccc1)[C@@H](C)c1ccccc1)[C@@H](C)c1ccccc1)[C@@H](C)c1ccccc1)[C@@H](C)c1ccccc1` [TM6] (H-[Nlys][Nspe][Nspe][Nlys][Nspe][Nspe][Nlys][Nspe][Nspe][Nlys][Nspe]-NH2), the “MIC against C. auris” value in assay [1] (setting [11]) came to 2 µg/mL; in assay [1] (CBS 12 373, value in brackets), 1.2 µM; in assay [10] (setting [18]) it was 31.25 µg/mL; in [10] (CBS 10 913, value in brackets), 18.8 µM. Moreover, the MIC of peptidomimetics in assay [2] (setting [12]) was determined as 31.3 µg/mL; in assay [2] (P. aeruginosa AR-1270, value in brackets), 18.8 µM; in assay [3] (setting [13]), 31.3 µg/mL; in [3] (K. pneumoniae JIE2709, value in brackets), 18.8 µM; in assay [4] (setting [14]) it was 62.5 µg/mL; in assay [4] (K. pneumoniae JIE2713, value in brackets) it was 37.7 µM. The MIC of peptidomimetics came to 7.8 µg/mL in assay [5] (setting [15]); 4.7 µM in assay [5] (S. aureus 117, value in brackets); 7.8 µg/mL in assay [6] (setting [16]); 4.7 µM in assay [6] (A. baumannii ATCC 19 606, value in brackets); 7.8 µg/mL in assay [7] (setting [17]); 4.7 µM in assay [7] (S. aureus 38, value in brackets). Besides, the “Geometric mean MICE” value in [8] is 29.1 µg/mL. The “Geometric mean MIC, all bacteria” value in [9] was 17.6 µg/mL; in [9] (value in brackets), 10.6 µM.

Values taken from publication PMC11879280, “Antimicrobial activity of peptoids against Metallo-β-lactamase-producing Klebsiella pneumoniae, Acinetobacter baumannii, Pseudomonas aeruginosa, and other WHO priority pathogens, including Candida auris” (Journal of Applied Microbiology, 2025).
